Data published in US20110105515A1, “TARGETING THE ONCOPROTEIN NUCLEOPHOSMIN” (President and Fellows of Harvard College, priority 2007, published 2011).

How the values were obtained:
OVCAR-5 = OVCAR-5 (Ovarian Cancer), 48 hours, SRB
SF-539 = SF-539 (CNS Cancer), 48 hours, SRB
TK-10 = TK-10 (Renal Cancer), 48 hours, SRB
SK-MEL-5 = SK-MEL-5 (Melanoma), 48 hours, SRB
MDA-MB-435 = MDA-MB-435 (Breast Cancer), 48 hours, SRB
KM12 = KM12 (Colon Cancer), 48 hours, SRB
NCI-H23 = NCI-H23 (Non-Small Cell Lung Cancer), 48 hours, SRB
OVCAR-4 = OVCAR-4 (Ovarian Cancer), 48 hours, SRB
HT29 = HT29 (Colon Cancer), 48 hours, SRB
NCI-H522 = NCI-H522 (Non-Small Cell Lung Cancer), 48 hours, SRB
SNB-19 = SNB-19 (CNS Cancer), 48 hours, SRB
SN12C = SN12C (Renal Cancer), 48 hours, SRB
SW-620 = SW-620 (Colon Cancer), 48 hours, SRB
HS578T = HS578T (Breast Cancer), 48 hours, SRB
SR = SR (Leukemia), 48 hours, SRB
LOX IMVI = LOX IMVI (Melanoma), 48 hours, SRB
SNB-75 = SNB-75 (CNS Cancer), 48 hours, SRB
HCT-15 = HCT-15 (Colon Cancer), 48 hours, SRB
EKVX = EKVX (Non-Small Cell Lung Cancer), 48 hours, SRB
NCI/ADR-RES = NCI/ADR-RES (Breast Cancer), 48 hours, SRB
SF-295 = SF-295 (CNS Cancer), 48 hours, SRB
OVCAR-8 = OVCAR-8 (Ovarian Cancer), 48 hours, SRB
A549/ATCC = A549/ATCC (Non-Small Cell Lung Cancer), 48 hours, SRB
A498 = A498 (Renal Cancer), 48 hours, SRB
MDA-MB-468 = MDA-MB-468 (Breast Cancer), 48 hours, SRB
MOLT-4 = MOLT-4 (Leukemia), 48 hours, SRB
ACHN = ACHN (Renal Cancer), 48 hours, SRB
MALME-3M = MALME-3M (Melanoma), 48 hours, SRB
SF-268 = SF-268 (CNS Cancer), 48 hours, SRB
IGROV1 = IGROV1 (Ovarian Cancer), 48 hours, SRB
PC-3 = PC-3 (Prostate Cancer), 48 hours, SRB
RXF 393 = RXF 393 (Renal Cancer), 48 hours, SRB

Cc1cc(C)cc(-c2ccc3c(c2)[N+]([O-])=C2C3=C[C@@]34NC(=O)C5(CCCN5C3=O)CC4C2(C)C)c1 (stereo partly drawn) [Biphenyl Analogue] was tested, and the TGI (OVCAR-5) was 1700 nM, the TGI (SF-539) was 445 nM and the TGI (TK-10) was 955 nM. It also gave a TGI (SK-MEL-5) of 324 nM, a TGI (MDA-MB-435) of 440 nM and a TGI (KM12) of 740 nM. For the same molecule, the TGI (NCI-H23) was 840 nM, the TGI (OVCAR-4) was 1720 nM and the TGI (HT29) was over 100000 nM. For the same molecule, the TGI (NCI-H522) was 297 nM, the TGI (SNB-19) was 950 nM and the TGI (SN12C) was 614 nM. It also gave a TGI (SW-620) of 349 nM, a TGI (HS578T) of 18900 nM and a TGI (SR) of 407 nM. It also gave a TGI (LOX IMVI) of 273 nM, a TGI (SNB-75) of 757 nM and a TGI (HCT-15) of 322 nM. The TGI (EKVX) was 1110 nM, the TGI (NCI/ADR-RES) was 2270 nM and the TGI (SF-295) was 1540 nM. For the same molecule, the TGI (OVCAR-8) was 1030 nM, the TGI (A549/ATCC) was 834 nM and the TGI (A498) was 1320 nM. For the same molecule, the TGI (MDA-MB-468) was 590 nM, the TGI (MOLT-4) was 604 nM and the TGI (ACHN) was 618 nM. For the same molecule, the TGI (MALME-3M) was 244 nM and the TGI (SF-268) was 767 nM.

Molecule CN(C)c1cccc2c(S(=O)(=O)NCCCCCCCCCCOc3ccc4c(c3)[N+]([O-])=C3C4=C[C@@]45NC(=O)C6(CCCN6C4=O)CC5C3(C)C)cccc12 (stereo partly drawn) [Dansyl Analogue] has a GI50 (OVCAR-5) of 1460 nM, a TGI (OVCAR-5) of 2960 nM and a CC50 (OVCAR-5; read-out: LC50) of 5970 nM. It also gave a GI50 (SF-539) of 215 nM, a TGI (SF-539) of 545 nM and a CC50 (SF-539; read-out: LC50) of 1890 nM. The GI50 (TK-10) was 716 nM, the TGI (TK-10) was 2810 nM and the CC50 (TK-10; read-out: LC50) was 9660 nM. For the same molecule, the GI50 (SK-MEL-5) was 373 nM, the TGI (SK-MEL-5) was 1470 nM and the CC50 (SK-MEL-5; read-out: LC50) was 3840 nM. It also gave a GI50 (MDA-MB-435) of 382 nM, a TGI (MDA-MB-435) of 1920 nM and a CC50 (MDA-MB-435; read-out: LC50) of 23100 nM. The GI50 (KM12) was 1250 nM, the TGI (KM12) was 2880 nM and the CC50 (KM12; read-out: LC50) was 6600 nM. For the same molecule, the GI50 (NCI-H23) was 581 nM, the TGI (NCI-H23) was 2480 nM and the CC50 (NCI-H23; read-out: LC50) was 9050 nM. The GI50 (OVCAR-4) was 348 nM, the TGI (OVCAR-4) was 7420 nM and the CC50 (OVCAR-4; read-out: LC50) was 32200 nM. The GI50 (HT29) was 454 nM, the TGI (HT29) was 1510 nM and the CC50 (HT29; read-out: LC50) was 3960 nM. It also gave a GI50 (NCI-H522) of 260 nM, a TGI (NCI-H522) of 857 nM and a CC50 (NCI-H522; read-out: LC50) of 8890 nM. It also gave a GI50 (SNB-19) of 359 nM, a TGI (SNB-19) of 1440 nM and a CC50 (SNB-19; read-out: LC50) of 4100 nM. The GI50 (SN12C) was 401 nM, the TGI (SN12C) was 6810 nM and the CC50 (SN12C; read-out: LC50) was 31700 nM. The GI50 (SW-620) was 266 nM, the GI50 (HS578T) was 355 nM and the TGI (HS578T) was 36900 nM. The CC50 (HS578T; read-out: LC50) was over 100000 nM, the GI50 (SR) was 371 nM and the TGI (SR) was 1940 nM. The CC50 (SR; read-out: LC50) was 23700 nM, the GI50 (LOX IMVI) was 166 nM and the TGI (LOX IMVI) was 310 nM. The CC50 (LOX IMVI; read-out: LC50) was 579 nM, the GI50 (SNB-75) was 273 nM and the TGI (SNB-75) was 930 nM. The CC50 (SNB-75; read-out: LC50) was 3430 nM, the GI50 (HCT-15) was 484 nM and the TGI (HCT-15) was 1750 nM. For the same molecule, the CC50 (HCT-15; read-out: LC50) was 4180 nM, the GI50 (EKVX) was 540 nM and the TGI (EKVX) was 3630 nM. The CC50 (EKVX; read-out: LC50) was 37000 nM, the GI50 (NCI/ADR-RES) was 28200 nM and the TGI (NCI/ADR-RES) was over 100000 nM. The CC50 (NCI/ADR-RES; read-out: LC50) was over 100000 nM, the GI50 (SF-295) was 1730 nM and the TGI (SF-295) was 4630 nM. For the same molecule, the CC50 (SF-295; read-out: LC50) was 49400 nM, the GI50 (OVCAR-8) was 759 nM and the TGI (OVCAR-8) was 11000 nM. The CC50 (OVCAR-8; read-out: LC50) was over 100000 nM, the GI50 (A549/ATCC) was 2170 nM and the TGI (A549/ATCC) was 5370 nM. The CC50 (A549/ATCC; read-out: LC50) was 18100 nM, the GI50 (A498) was 250 nM and the TGI (A498) was 1010 nM. The CC50 (A498; read-out: LC50) was 4400 nM, the GI50 (MDA-MB-468) was 202 nM and the TGI (MDA-MB-468) was 436 nM. The CC50 (MDA-MB-468; read-out: LC50) was 941 nM, the GI50 (IGROV1) was 272 nM and the TGI (IGROV1) was 695 nM. The CC50 (IGROV1; read-out: LC50) was 3390 nM, the GI50 (MOLT-4) was 276 nM and the CC50 (MOLT-4; read-out: LC50) was over 100000 nM. The GI50 (PC-3) was 334 nM, the TGI (PC-3) was 1820 nM and the CC50 (PC-3; read-out: LC50) was 41700 nM. For the same molecule, the GI50 (ACHN) was 736 nM, the TGI (ACHN) was 2700 nM and the CC50 (ACHN; read-out: LC50) was 8560 nM. The GI50 (RXF 393) was 611 nM, the TGI (RXF 393) was 5920 nM and the CC50 (RXF 393; read-out: LC50) was 44400 nM. It also gave a GI50 (MALME-3M) of 426 nM, a TGI (MALME-3M) of 2110 nM and a GI50 (SF-268) of 282 nM. It also gave a TGI (SF-268) of 853 nM and a CC50 (SF-268; read-out: LC50) of 3690 nM.

Work on [2H]On1c2c(c3ccc4c(c31)C=CC(C)(C)O4)C(OC([2H])([2H])[2H])[C@@]13NC(=O)C4(CCCN4C1=O)CC3C2(C)C (stereo partly drawn) [Deuterated Methanol Adduct] yielded a TGI (OVCAR-5) of 1910 nM, a TGI (SF-539) of 1460 nM and a TGI (TK-10) of 2350 nM. For the same molecule, the TGI (SK-MEL-5) was 2710 nM, the TGI (MDA-MB-435) was 1770 nM and the TGI (KM12) was 2520 nM. For the same molecule, the TGI (NCI-H23) was 2430 nM, the TGI (OVCAR-4) was 1630 nM and the TGI (HT29) was 3680 nM. It also gave a TGI (NCI-H522) of 1800 nM, a TGI (SNB-19) of 2310 nM and a TGI (SN12C) of 2320 nM. For the same molecule, the TGI (SW-620) was 1540 nM, the TGI (HS578T) was 2170 nM and the TGI (SR) was 1250 nM. The TGI (LOX IMVI) was 2140 nM, the TGI (SNB-75) was 1270 nM and the TGI (HCT-15) was 1770 nM. The TGI (EKVX) was 1970 nM, the TGI (NCI/ADR-RES) was 9950 nM and the TGI (SF-295) was 2730 nM. The TGI (OVCAR-8) was 2170 nM, the TGI (A549/ATCC) was 2990 nM and the TGI (A498) was 2220 nM. It also gave a TGI (MDA-MB-468) of 1780 nM, a TGI (IGROV1) of 2040 nM and a TGI (MOLT-4) of 1380 nM. It also gave a TGI (PC-3) of 2020 nM, a TGI (ACHN) of 2530 nM and a TGI (RXF 393) of 625 nM. It also gave a TGI (MALME-3M) of 1560 nM and a TGI (SF-268) of 3010 nM.
